In the supplement of paper PMC10627819:

Columns and labels:
S. aureus Newman [1] = test: fitness (endpoint OD595 vs no drug) (fraction); higher = more growth
Procedure, shortened: (§1)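 Plates with 384 wells were inoculated at OD595 0.01 using 30 µl of TSB, LB Lennox or CY, or 55 µl for S. pneumoniae. Incubation was at 37 °C, with OD595 measured every 30 min for 14 h. Fitness is the stationary-phase transition optical density over the robust mean of no-drug control wells, after first-reading background subtraction; it is capped at 1.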

B. subtilis 168 [2] = test: as above
Procedure, shortened: as §1

S. pneumoniae D39V [3] = test: as above
Procedure, shortened: as §1

S. aureus Newman [4] = test: Bliss interaction score (quartile over a dose matrix) (fitness difference); higher = more antagonism (negative = synergy)
Procedure, shortened: (§2)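 Growth was read as OD595 when cultures entered stationary phase, and each value was divided by the plate's robust no-drug mean and capped at 1. This normalised ratio is the fitness value, and fitness for each single drug came from the combination data. The Bliss score subtracts the expected fitness, taken as the product, from the observed fitness and is given as quartiles across technical, biological and donor/recipient replicates.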

B. subtilis 168 [5] = test: as above
Procedure, shortened: as §2

S. pneumoniae D39V [6] = test: as above
Procedure, shortened: as §2

S. aureus DSM 20231 [7] = test: as above
Procedure, shortened: as §2

S. aureus DSM 20231 [8] = test: fitness (endpoint OD595 vs no drug) (fraction); higher = more growth
Procedure, shortened: as §1

[9] = first compound 1.25 µg/mL, partner 0.039 µg/mL
[10] = first compound 1.25 µg/mL, partner 0.078 µg/mL
[11] = first compound 1.25 µg/mL, partner 0.156 µg/mL
[12] = first compound 2.5 µg/mL, partner 0.039 µg/mL
[13] = first compound 2.5 µg/mL, partner 0.078 µg/mL
[14] = first compound 2.5 µg/mL, partner 0.156 µg/mL
[15] = first compound 5 µg/mL, partner 0.039 µg/mL
[16] = first compound 5 µg/mL, partner 0.078 µg/mL
[17] = first compound 5 µg/mL, partner 0.156 µg/mL
[18] = first compound 1.25 µg/mL, partner 0.125 µg/mL, one replicate
[19] = first compound 2.5 µg/mL, partner 0.125 µg/mL, one replicate
[20] = first compound 5 µg/mL, partner 0.125 µg/mL, one replicate
[21] = first compound 1.25 µg/mL, partner 1 µg/mL
[22] = first compound 1.25 µg/mL, partner 2 µg/mL
[23] = first compound 2.5 µg/mL, partner 1 µg/mL
[24] = first compound 2.5 µg/mL, partner 2 µg/mL
[25] = first compound 5 µg/mL, partner 1 µg/mL
[26] = first compound 5 µg/mL, partner 2 µg/mL
[27] = first compound 1.25 µg/mL, partner 0.25 µg/mL
[28] = first compound 2.5 µg/mL, partner 0.25 µg/mL
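For Bliss interaction score (quartile over a dose matrix) in this document: first quartile when negative (synergy) and third quartile when positive (antagonism).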

## C[n+]1ccc(-c2cc[n+](C)cc2)cc1 [Paraquat] + CN(C)c1cc(NC(=O)CNC(C)(C)C)c(O)c2c1C[C@H]1C[C@H]3[C@H](N(C)C)C(O)=C(C(N)=O)C(=O)[C@@]3(O)C(O)=C1C2=O [Tigecycline]
S. aureus Newman [1]; [9]
  fitness: 0.905
S. aureus Newman [1]; [10]
  fitness: ≥ 1
S. aureus Newman [1]; [11]
  fitness: 0.975
S. aureus Newman [1]; [12]
  fitness: 0.929
S. aureus Newman [1]; [13]
  fitness: 0.952
S. aureus Newman [1]; [14]
  fitness: 0.925
S. aureus Newman [1]; [15]
  fitness: 0.881
S. aureus Newman [1]; [16]
  fitness: 0.934
S. aureus Newman [1]; [17]
  fitness: 0.898
B. subtilis 168 [2]; [9]
  fitness: 0.982
B. subtilis 168 [2]; [10]
  fitness: 0.919
B. subtilis 168 [2]; [18]
  fitness: ≥ 1
B. subtilis 168 [2]; [11]
  fitness: 0.94
B. subtilis 168 [2]; first compound 1.25 µg/mL, partner 0.25 µg/mL, one replicate
  fitness: ≥ 1
B. subtilis 168 [2]; first compound 1.25 µg/mL, partner 0.5 µg/mL, one replicate
  fitness: 0.998
B. subtilis 168 [2]; [12]
  fitness: 0.975
B. subtilis 168 [2]; [13]
  fitness: 0.957
B. subtilis 168 [2]; [19]
  fitness: ≥ 1
B. subtilis 168 [2]; [14]
  fitness: 0.93
B. subtilis 168 [2]; first compound 2.5 µg/mL, partner 0.25 µg/mL, one replicate
  fitness: 0.93
B. subtilis 168 [2]; first compound 2.5 µg/mL, partner 0.5 µg/mL, one replicate
  fitness: 0.973
B. subtilis 168 [2]; [15]
  fitness: 0.88
B. subtilis 168 [2]; [16]
  fitness: 0.86
B. subtilis 168 [2]; [20]
  fitness: ≥ 1
B. subtilis 168 [2]; [17]
  fitness: 0.84
B. subtilis 168 [2]; first compound 5 µg/mL, partner 0.25 µg/mL, one replicate
  fitness: 0.941
B. subtilis 168 [2]; first compound 5 µg/mL, partner 0.5 µg/mL, one replicate
  fitness: 0.893
S. pneumoniae D39V [3]; first compound 1.5 µg/mL, partner 0.65 µg/mL
  fitness: 0.974
S. pneumoniae D39V [3]; first compound 1.5 µg/mL, partner 1.3 µg/mL
  fitness: 0.956
S. pneumoniae D39V [3]; first compound 1.5 µg/mL, partner 2.6 µg/mL
  fitness: 0.923
S. pneumoniae D39V [3]; first compound 3 µg/mL, partner 0.65 µg/mL
  fitness: 0.967
S. pneumoniae D39V [3]; first compound 3 µg/mL, partner 1.3 µg/mL
  fitness: 0.986
S. pneumoniae D39V [3]; first compound 3 µg/mL, partner 2.6 µg/mL
  fitness: 0.9
S. pneumoniae D39V [3]; first compound 6 µg/mL, partner 0.65 µg/mL
  fitness: 0.939
S. pneumoniae D39V [3]; first compound 6 µg/mL, partner 1.3 µg/mL
  fitness: 0.951
S. pneumoniae D39V [3]; first compound 6 µg/mL, partner 2.6 µg/mL
  fitness: 0.898
S. aureus Newman [4]
  Bliss interaction score: 0.0431
B. subtilis 168 [5]
  Bliss interaction score: -0.0331
S. pneumoniae D39V [6]
  Bliss interaction score: -0.0568
S. aureus DSM 20231 [7]
  Bliss interaction score: 0.0449

## C[n+]1ccc(-c2cc[n+](C)cc2)cc1 [Paraquat] + CN[C@@H]1[C@H](O[C@H]2[C@H](O[C@H]3[C@H](O)[C@@H](O)[C@H](N=C(N)N)[C@@H](O)[C@@H]3N=C(N)N)O[C@@H](C)[C@]2(O)C=O)O[C@@H](CO)[C@H](O)[C@H]1O [Streptomycin]
S. aureus Newman [1]; [21]
  fitness: 0.99
S. aureus Newman [1]; [22]
  fitness: 0.882
S. aureus Newman [1]; [23]
  fitness: 0.907
S. aureus Newman [1]; [24]
  fitness: 0.912
S. aureus Newman [1]; [25]
  fitness: 0.908
S. aureus Newman [1]; [26]
  fitness: 0.859
B. subtilis 168 [2]; [22]
  fitness: 0.886
B. subtilis 168 [2]; first compound 1.25 µg/mL, partner 8 µg/mL
  fitness: 0.0237
B. subtilis 168 [2]; [24]
  fitness: 0.924
B. subtilis 168 [2]; first compound 2.5 µg/mL, partner 8 µg/mL
  fitness: 0.0505
B. subtilis 168 [2]; [26]
  fitness: 0.777
B. subtilis 168 [2]; first compound 5 µg/mL, partner 4 µg/mL
  fitness: 0.26
B. subtilis 168 [2]; first compound 5 µg/mL, partner 8 µg/mL
  fitness: 0.0406
S. pneumoniae D39V [3]; first compound 1.5 µg/mL, partner 2 µg/mL
  fitness: 0.953
S. pneumoniae D39V [3]; first compound 1.5 µg/mL, partner 4 µg/mL
  fitness: 0.983
S. pneumoniae D39V [3]; first compound 1.5 µg/mL, partner 8 µg/mL
  fitness: 0.89
S. pneumoniae D39V [3]; first compound 1.5 µg/mL, partner 16 µg/mL, one replicate
  fitness: 0.865
S. pneumoniae D39V [3]; first compound 3 µg/mL, partner 2 µg/mL
  fitness: 0.967
S. pneumoniae D39V [3]; first compound 3 µg/mL, partner 4 µg/mL
  fitness: 0.964
S. pneumoniae D39V [3]; first compound 3 µg/mL, partner 8 µg/mL
  fitness: 0.884
S. pneumoniae D39V [3]; first compound 3 µg/mL, partner 16 µg/mL, one replicate
  fitness: 0.857
S. pneumoniae D39V [3]; first compound 6 µg/mL, partner 2 µg/mL
  fitness: 0.946
S. pneumoniae D39V [3]; first compound 6 µg/mL, partner 4 µg/mL
  fitness: 0.916
S. pneumoniae D39V [3]; first compound 6 µg/mL, partner 8 µg/mL
  fitness: 0.866
S. pneumoniae D39V [3]; first compound 6 µg/mL, partner 16 µg/mL, one replicate
  fitness: 0.722
S. aureus Newman [4]
  Bliss interaction score: 0.0567
B. subtilis 168 [5]
  Bliss interaction score: -0.119
S. pneumoniae D39V [6]
  Bliss interaction score: -0.0799
S. aureus DSM 20231 [7]
  Bliss interaction score: 0.118

## C[n+]1ccc(-c2cc[n+](C)cc2)cc1 [Paraquat] + COc1cc(Cc2cnc(N)nc2N)cc(OC)c1OC [Trimethoprim]
B. subtilis 168 [2]; first compound 1.25 µg/mL, partner 0.1 µg/mL, one replicate
  fitness: 0.944
B. subtilis 168 [2]; [18]
  fitness: 0.737
B. subtilis 168 [2]; first compound 1.25 µg/mL, partner 0.2 µg/mL, one replicate
  fitness: 0.744
B. subtilis 168 [2]; [27]
  fitness: 0.683
B. subtilis 168 [2]; first compound 1.25 µg/mL, partner 0.4 µg/mL, one replicate
  fitness: 0.526
B. subtilis 168 [2]; first compound 1.25 µg/mL, partner 0.5 µg/mL
  fitness: 0.385
B. subtilis 168 [2]; first compound 1.25 µg/mL, partner 1 µg/mL, one replicate
  fitness: 0.309
B. subtilis 168 [2]; first compound 1.25 µg/mL, partner 2 µg/mL, one replicate
  fitness: 0.332
B. subtilis 168 [2]; first compound 2.5 µg/mL, partner 0.1 µg/mL, one replicate
  fitness: 0.947
B. subtilis 168 [2]; [19]
  fitness: 0.734
B. subtilis 168 [2]; first compound 2.5 µg/mL, partner 0.2 µg/mL, one replicate
  fitness: 0.66
B. subtilis 168 [2]; [28]
  fitness: 0.604
B. subtilis 168 [2]; first compound 2.5 µg/mL, partner 0.4 µg/mL, one replicate
  fitness: 0.459
B. subtilis 168 [2]; first compound 2.5 µg/mL, partner 1 µg/mL, one replicate
  fitness: 0.396
B. subtilis 168 [2]; first compound 2.5 µg/mL, partner 2 µg/mL, one replicate
  fitness: 0.237
B. subtilis 168 [2]; first compound 5 µg/mL, partner 0.1 µg/mL, one replicate
  fitness: 0.873
B. subtilis 168 [2]; [20]
  fitness: 0.626
B. subtilis 168 [2]; first compound 5 µg/mL, partner 0.2 µg/mL, one replicate
  fitness: 0.642
B. subtilis 168 [2]; first compound 5 µg/mL, partner 0.4 µg/mL, one replicate
  fitness: 0.358
B. subtilis 168 [2]; first compound 5 µg/mL, partner 0.5 µg/mL
  fitness: 0.298
B. subtilis 168 [2]; first compound 5 µg/mL, partner 1 µg/mL, one replicate
  fitness: 0.068
B. subtilis 168 [2]; first compound 5 µg/mL, partner 2 µg/mL, one replicate
  fitness: 0.0488
S. aureus DSM 20231 [8]; first compound 1.25 µg/mL, partner 0.125 µg/mL
  fitness: 0.715
S. aureus DSM 20231 [8]; [27]
  fitness: 0.602
S. aureus DSM 20231 [8]; [21]
  fitness: 0.0458
S. aureus DSM 20231 [8]; first compound 2.5 µg/mL, partner 0.125 µg/mL
  fitness: 0.741
S. aureus DSM 20231 [8]; [28]
  fitness: 0.606
S. aureus DSM 20231 [8]; [23]
  fitness: 0.0312
S. aureus DSM 20231 [8]; first compound 5 µg/mL, partner 0.125 µg/mL
  fitness: 0.68
S. aureus DSM 20231 [8]; first compound 5 µg/mL, partner 0.25 µg/mL
  fitness: 0.604
S. aureus DSM 20231 [8]; [25]
  fitness: 0.0357
S. aureus Newman [4]
  Bliss interaction score: -0.0902
B. subtilis 168 [5]
  Bliss interaction score: -0.0973
S. pneumoniae D39V [6]
  Bliss interaction score: 0.0991
S. aureus DSM 20231 [7]
  Bliss interaction score: 0.0513
